US10231960B2, “Methylphenidate-prodrugs, processes of making and using the same” (KemPharm, Inc., priority 2011, dated 2019)
In brackets after ≈: the same amount, converted by molar mass.

Experiments:
[1] = Oral PK in rats: plasma methylphenidate released from conjugates vs unconjugated methylphenidate (LC-MS/MS); details: oral gavage; for Tmax: Tmax (Methylphenidate)
Text: Exemplary prodrug conjugates of the present technology were synthesized as described above. The oral plasma concentrations of methylphenidate released from nicotinate-CH2OCO-MPH, phosphate-CH2OCO-MPH, gallate-CH2OCO-MPH, lactate-CH2OCO-MPH, MPH-CO2CH2-nicotinoyl-Asp, MPH-CO2CH2-nicotinoyl-Val, MPH-CO2CH2-nicotinoyl-Gly-Ala, Val-6-aminohexanoate-CH2OCO-MPH, MPH-CO2CH2-nicotinamide, 6-aminohexanoate-CH2OCO-MPH, MPH-CO2CH2-nicotinoyl-O^tBu, MPH-CO2CH2-nicotinate, MPH-CO2CH2-nicotinoyl-OEL MPH-CO2CH2-pyridine, isonicotinate-CH2OCO-MPH and phosphate-(p-salicylate)-CH2OCO-MPH were compared with unconjugated methylphenidate after oral administration in rats. Rats were dosed with oral solutions of the conjugated prodrugs in an amount equivalent to 2 mg/kg of methylphenidate free base and compared to an equimolar solution of unconjugated methylphenidate hydrochloride.
The plasma concentrations of methylphenidate were measured by LC-MS/MS over time.
The dosing vehicles for the PK experiments are as follows: FIG. 13—10% Tween in water. FIGS. 14 and 15—water. FIG. 16—conjugate in 50% PEG-400 in water; control: water. FIG. 17—50% PEG-400 in water. FIG. 18—10% Tween in water. FIGS. 19-27—water. FIGS. 28 and 29—phosphate buffered saline (PBS). FIG. 30—10% Tween in water.

[2] = Intranasal PK in rats: plasma methylphenidate released from conjugates vs unconjugated methylphenidate; format: in vivo; details: rat, inhaled or intranasal, unconjugated methylphenidate comparator, dosed intranasally
Text: (§1) FIGS. 14 and 15—water. […] FIG. 17—50% PEG-400 in water. FIG. 18—10% Tween in water. FIGS. 19-27—water. FIGS. 28 and 29—phosphate buffered saline (PBS). FIG. 30—10% Tween in water.

[3] = Intravenous PK in rats: plasma methylphenidate released from conjugates vs unconjugated methylphenidate; format: in vivo; details: rat, unconjugated methylphenidate comparator, dosed intravenously
Text: as §1

[4] = Water solubility at ambient temperature; format: physicochemical
Method: The water solubility of phosphate-CH2OCO-methylphenidate and unconjugated methylphenidate was determined at ambient temperature and the results are found in Table 5.

[5] = water, at 32° C.; cited from earlier work
[6] = conjugate relative to unconjugated methylphenidate
[7] = plasma methylphenidate released from conjugate, equivalent to 2 mg/kg methylphenidate free base
[8] = read-out: AUC0-4 h (Methylphenidate)
[9] = conjugate relative to methylphenidate hydrochloride from combined data of six studies
[10] = calculated from combined data of three studies (footnote a)

Structure (SMILES)	AUC-% [1, 6]	Cmax-% [1, 6]	Tmax-% [1, 6]	AUC0-4 h (Conjugate) [1, 7]	Cmax (Conjugate) [1, 7]	Tmax (Conjugate) [1, 7]	further results
COC(=O)C(c1ccccc1)C1CCCCN1C(=O)OCOC(=O)CCCCCN (centres unmarked) [6-Aminohexanoate-CH2OCO-MPH, (6-aminohexanoyloxy)methyl methylphenidate-1-carboxylate]	82%	109%	88%	145.6 ng·h/mL	173.5 ng/mL	21 min	–
COC(=O)C(c1ccccc1)C1CCCCN1C(=O)OCOC(=O)C(C)O (centres unmarked) [Lactate-CH2OCO-MPH, lactate-CH2OCO-MPH]	73%	75%	120%	132.3 ng·h/mL	122.5 ng/mL	18 min	–
COC(=O)C(c1ccccc1)C1CCCCN1 (centres unmarked) [Methylphenidate, methyl phenyl(piperidin-2-yl)acetate]	–	–	–	–	–	–	AUC(0-t) ([1]; rat, plasma, po, 2 mg/kg, AUC0-4 h (Methylphenidate), methylphenidate hydrochloride, combined data of six studies (footnotes a, b)): 106 ng·h/mL; Cmax ([1]; rat, plasma, po, 2 mg/kg, Cmax (Methylphenidate), methylphenidate hydrochloride, combined data of six studies (footnotes a, b)): 114 ng/mL; Tmax ([1]; rat, plasma, po, 2 mg/kg, methylphenidate hydrochloride, combined data of six studies (footnotes a, b)): 17 min; Tmax ([1]; rat, plasma, po, 2 mg/kg, unconjugated methylphenidate hydrochloride comparator of the same row, equimolar): 15 min; Cmax [2]: 2210 ng/mL; Tmax [2]: 6.96 min; AUC(0-t) [2, 8]: 1050 ng·h/mL; Cmax [3]: 296 ng/mL; Tmax [3]: 31 min; AUC(0-t) [3, 8]: 320 ng·h/mL; solubility ([4]; water): 169 mg/mL (≈ 724 mM); Solubility data found in the literature [5]: 191 mg/mL (≈ 819 mM)
COC(=O)C(c1ccccc1)C1CCCCN1C(=O)OCOP(=O)(O)O (centres unmarked) [Phosphate-CH2OCO-MPH, phosphate-CH2OCO-MPH]	185%	144%	100%	110.8 ng·h/mL	110.8 ng/mL	15 min	AUC-% [1, 9]: 146%; Cmax-% [1, 9]: 140%; Tmax-% [1, 9]: 88%; AUC0-4 h (Conjugate) [1, 10]: 154.5 ng·h/mL; Cmax (Conjugate) [1, 10]: 158.9 ng/mL; Tmax (Conjugate) [1, 10]: 15 min; Solubility in Water [4]: 432 mg/mL; Water solubility relative to the unconjugated form ([4]; vs unconjugated methylphenidate hydrochloride): about 2.5 times
COC(=O)C(c1ccccc1)C1CCCCN1C(=O)OCOC(=O)CCCCCNC(=O)C(N)C(C)C (centres unmarked) [Val-6-aminohexanoate-CH2OCO-MPH]	58%	59%	83%	44.9 ng·h/mL	52.7 ng/mL	15 min	–
